Measured values as given in patent publication US4241052A, “Novel nitrosourea compounds and process for preparing the same” (Tanabe Seiyaku Co., Ltd., priority 1978, dated 1980).

Tests used:
leukemic cells = settings: Japanese Patent Publication No. 141815/1976; cited from earlier work
[1] = system: tumor cells of lymphoid leukemia L-1210; settings: tumor cells implanted intraperitoneally; U.S. Pat. No. 4086451 and Japanese publications; cited from earlier work
[2] = Preventive effect against the growth of Ehrlich ascites carcinoma (Method A); assay type: in vivo, mice (ICR, female); settings: mouse, in vivo, ip; max dose, 100% inhibition without death; doses of the table in mg/kg/day; read-out: MTD (Maximum Tolerated Dose)
Experimental: (§1) (A) Preventive effect against the growth of Ehrlich ascites tumor
(§2) 10^6 tumor cells of Ehrlich ascites carcinoma were inoculated intraperitoneally into a group of five femal mice (ICR mice, body weight: 19-23 g). A test compound was dissolved in a physiological saline solution and administered intraperitoneally to the mice. The administration of the test compound was began 24 hours after the inoculation of the tumor cells and performed once a day for 5 days. The volume of ascites in the treated mice were measured after 7 days of the experiment.

[3] = system: Ehrlich ascites carcinoma; assay: as above; assay type: in vivo, mice (ICR, female); settings: for inhibition in vivo at 1.56 mg/kg: 1.56 mg/kg/day i.p.; for inhibition in vivo at 6.25 mg/kg: 6.25 mg/kg/day i.p.; for inhibition in vivo at 100 mg/kg: 100 mg/kg/day i.p.; for inhibition in vivo at 400 mg/kg: 400 mg/kg/day i.p.; for minimal effective dose: 168 h, min dose, 100% inhibition, read-out: MED (Minimum Effective Dose)
Experimental: as §1, §2

Leukemia L-1210 = assay: Effect on life span of mice implanted with leukemic cells of L-1210 (Method B); assay type: in vivo, mice (BDF1, male); settings: 5 days
Experimental: (B) Effect on the life span of mice implanted with leukemic cells of L-1210
10^5 leukemic cells of L-1210 were inoculated intraperitoneally into a group of four male mice (BDF1 mice, body weight: 19-23 g). A test compound was dissolved in a physiological saline solution and administered intraperitoneally to the mice. The administration of the test compound was began 24 hours after the inoculation of the leukemic cells and performed once a day for 5 days. The survival days of the treated mice were observed.

[4] = Mus musculus, Ehrlich, ip, 120 h, 0.78 mg/kg/day i.p., 5 days, read-out: Inhibition ratio
[5] = Mus musculus, Ehrlich, ip, 120 h, 5 days, read-out: Inhibition ratio
[6] = Mus musculus, Ehrlich, ip, 120 h, 25 mg/kg/day i.p., 5 days, read-out: Inhibition ratio
[7] = Mus musculus, Ehrlich, ip, doses of the table in mg/kg/day
[8] = Mus musculus, Ehrlich, ip, 120 h, 0.39 mg/kg/day i.p., 5 days, read-out: Inhibition ratio
[9] = Mus musculus, Ehrlich, ip, 120 h, 0.19 mg/kg/day i.p., 5 days, read-out: Inhibition ratio

Structure (SMILES) | MTD at 168 h [2] [mg/kg/day] | Therapeutic index (MTD/MED) [3] | inhibition in vivo at 0.78 mg/kg [3, 4] [%] | inhibition in vivo at 1.56 mg/kg [3, 5] [%] | inhibition in vivo at 6.25 mg/kg [3, 5] [%] | inhibition in vivo at 25 mg/kg [3, 6] [%] | inhibition in vivo at 100 mg/kg [3, 5] [%] | minimal effective dose [3, 7] [mg/kg/day] | 60-day survivors (mice survived/mice used) (Leukemia L-1210; 25 mg/kg/day i.p.) | ILS (Leukemia L-1210; 25 mg/kg/day i.p.) [%] | Toxic (number of mice died/number of mice used) ([3]; 200 mg/kg/day i.p., 5 days) | inhibition in vivo at 0.39 mg/kg [3, 8] [%] | 60-day survivors (mice survived/mice used) (Leukemia L-1210; 6.25 mg/kg/day i.p.) | ILS (Leukemia L-1210; 6.25 mg/kg/day i.p.) [%] | 60-day survivors (mice survived/mice used) (Leukemia L-1210; 50 mg/kg/day i.p.) | ILS (Leukemia L-1210; 50 mg/kg/day i.p.) [%] | other results
O=NN(CCCl)C(=O)NC1O[C@H](CO)[C@@H](O[C@@H]2O[C@H](CO)[C@H](O)[C@H](O)[C@H]2O)[C@H](O)[C@H]1O (stereo partly drawn) [1-(2-chloroethyl)-1-nitroso-3-(D-lactosyl)urea] |  |  |  |  |  |  |  |  |  |  |  |  |  |  |  |  | anti-tumor activity against leukemic cells (leukemic cells): show anti-tumor activity
O=NN(CCCl)C(=O)NC1O[C@H](CO)[C@@H](O[C@H]2O[C@H](CO)[C@@H](O)[C@H](O)[C@H]2O)[C@H](O)[C@H]1O (stereo partly drawn) [1-(2-chloroethyl)-1-nitroso-3-(D-maltosyl)urea] |  |  |  |  |  |  |  |  |  |  |  |  |  |  |  |  | anti-tumor activity against leukemic cells (leukemic cells): show anti-tumor activity
O=NN(CCCl)C(=O)NC1O[C@H](CO)[C@@H](O)[C@H](O)[C@@H]1O (stereo partly drawn) [1-(2-chloroethyl)-1-nitroso-3-(D-mannopyranosyl)urea] |  |  |  |  |  |  |  |  |  |  |  |  |  |  |  |  | life span of mice implanted with L-1210 [1]: increase the life span
COc1ccc(CN(C(=O)N(CCCl)N=O)C2O[C@H](CO)[C@@H](O[C@H]3O[C@H](CO)[C@@H](O)[C@H](O)[C@H]3O)[C@H](O)[C@H]2O)cc1 (stereo partly drawn) [Compound 3, 1-(2-chloroethyl)-1-nitroso-3-(p-methoxybenzyl)-3-[O-α-D-glucopyranosyl-(1→4)-D-glucopyranosyl]urea] | 400 | 256 | 23.1 | 100 | 100 | 100 | 100 | 1.56 | 0/4 | 50.7 |  |  |  |  |  |  | Toxic (number of mice died/number of mice used) ([3]; 800 mg/kg/day i.p., 5 days): 5/5; inhibition in vivo at 400 mg/kg [3, 5]: 100%; 60-day survivors (mice survived/mice used) (Leukemia L-1210; 200 mg/kg/day i.p.): 2/4; ILS (Leukemia L-1210; 200 mg/kg/day i.p.): > 328.8%; 60-day survivors (mice survived/mice used) (Leukemia L-1210; 400 mg/kg/day i.p.): 4/4; ILS (Leukemia L-1210; 400 mg/kg/day i.p.): > 721.9%
O=NN(CCCl)C(=O)N(Cc1ccco1)C1O[C@H](CO)[C@@H](O[C@H]2O[C@H](CO)[C@@H](O)[C@H](O)[C@H]2O)[C@H](O)[C@H]1O (stereo partly drawn) [Compound 6, 1-(2-chloroethyl)-1-nitroso-3-furfuryl-3-[O-α-D-glucopyranosyl-(1→4)-D-glucopyranosyl]urea] | 400 | 128 | 21.6 | 76.5 | 100 | 100 | 100 | 3.12 | 0/4 | 65.3 |  |  |  |  |  |  | Toxic (number of mice died/number of mice used) ([3]; 800 mg/kg/day i.p., 5 days): 5/5; inhibition in vivo at 3.12 mg/kg ([3]; Mus musculus, Ehrlich, ip, 120 h, 3.12 mg/kg/day i.p., 5 days, read-out: Inhibition ratio): 100%; inhibition in vivo at 400 mg/kg [3, 5]: 100%; 60-day survivors (mice survived/mice used) (Leukemia L-1210; 100 mg/kg/day i.p.): 2/4; ILS (Leukemia L-1210; 100 mg/kg/day i.p.): > 351.4%; 60-day survivors (mice survived/mice used) (Leukemia L-1210; 200 mg/kg/day i.p.): 4/4; ILS (Leukemia L-1210; 200 mg/kg/day i.p.): > 733.3%
O=NN(CCCl)C(=O)N(CC1CC1)C1O[C@H](CO)[C@H](O)[C@H](O)[C@H]1O (stereo partly drawn) [Compound 8, 1-(2-chloroethyl)-1-nitroso-3-cyclopropylmethyl-3-(D-galactopyranosyl)urea] | 100 | 128 | 100 | 100 | 100 | 100 | 100 | 0.78 | 4/4 | > 650.0 | 3/5 | 21.1 | 0/4 | 53.8 | 4/4 | > 650.0 | 
O=NN(CCCl)C(=O)N(CC1CCCO1)C1O[C@H](CO)[C@H](O)[C@H](O)[C@H]1O (stereo partly drawn) [Compound 9, 1-(2-chloroethyl)-1-nitroso-3-tetrahydrofurfuryl-3-(D-galactopyranosyl)urea] | 100 | 64 | 37.5 | 100 | 100 | 100 | 100 | 1.56 | 4/4 | > 689.5 | 5/5 | 6.2 | 0/4 | 55.3 |  |  | 60-day survivors (mice survived/mice used) (Leukemia L-1210; 100 mg/kg/day i.p.): 4/4; ILS (Leukemia L-1210; 100 mg/kg/day i.p.): > 689.5%
O=NN(CCCl)C(=O)N(CC1CC1)C1OC[C@H](O)[C@H](O)[C@H]1O (stereo partly drawn) [Compound 10, 1-(2-chloroethyl)-1-nitroso-3-cyclopropylmethyl-3-(L-arabinopyranosyl)urea] | 100 | 128 | 100 | 100 | 100 | 100 | 100 | 0.78 | 4/4 | > 721.9 | 5/5 | 79.5 | 0/4 | 82.2 | 4/4 | > 721.9 | inhibition in vivo at 0.19 mg/kg [3, 9]: 17.9%
O=NN(CCCl)C(=O)N(Cc1cccs1)C1OC[C@H](O)[C@H](O)[C@H]1O (stereo partly drawn) [Compound 13, 1-(2-chloroethyl)-1-nitroso-3-(thiophen-2-yl-methyl)-3-(L-arabinopyranosyl)urea] | 100 | 128 | 100 | 100 | 100 | 100 | 100 | 0.78 | 2/4 | > 442.9 | 5/5 | 54 |  |  | 2/4 | > 414.3 | inhibition in vivo at 0.19 mg/kg [3, 9]: 18%; 60-day survivors (mice survived/mice used) (Leukemia L-1210; 12.5 mg/kg/day i.p.): 0/4; ILS (Leukemia L-1210; 12.5 mg/kg/day i.p.): 121.4%
O=NN(CCCl)C(=O)N[C@@H]1O[C@H](CO)[C@@H](O)[C@H](O)[C@H]1O [GANU, 1-(2-chloroethyl)-1-nitroso-3-(D-glucopyranosyl)urea, reference compound] |  | 32 |  |  |  |  |  | 0.39 |  |  |  |  |  |  |  |  | Inhibition ratio ([3]; 0.09 mg/kg/day i.p., 5 days): 4.2%; Inhibition ratio ([3]; 0.19 mg/kg/day i.p., 5 days): 79.2%; Inhibition ratio ([3]; 0.39 mg/kg/day i.p., 5 days): 100%; Inhibition ratio ([3]; 0.78 mg/kg/day i.p., 5 days): 100%; Inhibition ratio ([3]; 3.12 mg/kg/day i.p., 5 days): 100%; Toxic (number of mice died/number of mice used) ([3]; 25 mg/kg/day i.p., 5 days): 5/5; MTD (Maximum Tolerated Dose) ([3]; max dose, 100% inhibition without death, doses of the table in mg/kg/day, 10080 min): 12.5; life span of mice implanted with L-1210 [1]: increase the life span
